Results: patent US7585873B2, “1-(aminoalkyl)-3-sulfonylazaindoles as 5-hydroxytryptamine-6 ligands” (Wyeth, priority 2002, dated 2009)

Key:
[1] = biological target: T1, human cloned 5-HT6 receptors (Homo sapiens, UniProt P50406); experiment: 5-HT6 binding affinity, [3H]-LSD displacement on membranes of Hela cells expressing human cloned 5-HT6 receptors; details: [3H]-LSD 3.0 nM, Hela cell membranes, 120 min at room temperature; read-out: 5-HT6 Binding Ki
T1 construct: expressed in transfected cells; host or cells: Hela cells
T1 sequence (P50406 whole entry): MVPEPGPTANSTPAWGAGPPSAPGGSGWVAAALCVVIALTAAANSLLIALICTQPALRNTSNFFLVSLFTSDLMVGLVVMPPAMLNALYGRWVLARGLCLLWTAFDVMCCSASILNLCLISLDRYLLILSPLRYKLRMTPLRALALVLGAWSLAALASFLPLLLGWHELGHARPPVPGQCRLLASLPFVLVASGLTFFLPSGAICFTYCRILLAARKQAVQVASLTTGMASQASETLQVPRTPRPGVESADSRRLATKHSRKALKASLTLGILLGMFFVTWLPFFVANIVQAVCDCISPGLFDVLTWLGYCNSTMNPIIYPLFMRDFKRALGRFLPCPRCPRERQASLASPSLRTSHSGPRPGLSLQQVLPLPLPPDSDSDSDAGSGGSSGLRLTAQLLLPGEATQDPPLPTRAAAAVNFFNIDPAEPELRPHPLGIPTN

CN(C)CCn1cc(S(=O)(=O)c2ccccc2)c2nc(Cl)ccc21 [Example 81]
Ki [1]: 214 nM | melting point: 244 to 246 °C
